# Patent US20230302084A1, “METHODS AND COMPOSITIONS FOR TREATING PERIODONTAL DISEASE” (priority 2020, published 2023)
# T1: minor fimbriae (Mfal) of P. gingivalis (Porphyromonas gingivalis, UniProt B2RHG1 50-563)
# T1 sequence (looked up): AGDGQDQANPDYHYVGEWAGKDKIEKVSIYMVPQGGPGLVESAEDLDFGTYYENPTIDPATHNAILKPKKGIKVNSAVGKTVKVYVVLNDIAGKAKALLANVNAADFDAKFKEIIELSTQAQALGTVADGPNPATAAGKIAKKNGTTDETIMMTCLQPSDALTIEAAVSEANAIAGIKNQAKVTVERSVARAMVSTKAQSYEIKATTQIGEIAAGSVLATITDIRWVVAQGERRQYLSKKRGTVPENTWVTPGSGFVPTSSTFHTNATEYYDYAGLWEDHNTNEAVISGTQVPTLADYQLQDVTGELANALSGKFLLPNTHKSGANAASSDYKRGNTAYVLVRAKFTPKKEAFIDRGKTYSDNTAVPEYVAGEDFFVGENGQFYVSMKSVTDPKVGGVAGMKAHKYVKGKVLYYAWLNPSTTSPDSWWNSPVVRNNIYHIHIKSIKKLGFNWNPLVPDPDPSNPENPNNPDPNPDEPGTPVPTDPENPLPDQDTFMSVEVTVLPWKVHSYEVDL
# B1: BAR (SspB Adherence Region) peptide (peptide)
# peptide: LEAAPKKVQDLLKKANITVKGAFQLFS
# How the values were obtained:
# [1] = system: TIGK cells; test: LDH assay (BAR NPs); format: cell-based; settings: staurosporine, vs control or treated cells
# Method: Cell membrane leakage was measured by the release of lactate dehydrogenase (LDH). Extracellular LDH was quantified using a CytoTox96® non-radioactive cytotoxicity assay (Promega, Madison WI) as described by the manufacturer. TIGK cells were plated at density of 6×10^4 cells in 1 mL media per well in a 12-well flat bottom plate, and incubated at 37° C., 5% CO2 for 24 hr. CafA-modified BAR NPs or unmodified BAR NPs (1.3 or 3.4 μM) were added to cells in triplicate for 24 hr at 37° C. in 5% CO2. Fifty microliters of supernatant from CafA-modified BAR NP- and unmodified BAR NP-treated (1.3 and 3.4 μM) cells were added to the LDH substrate and incubated at room temperature for 30 min. The reactions were subsequently terminated by adding 50 μL of stop solution. LDH activity was determined by measuring the optical density of the solution at 490 nm. Cells treated with staurosporine or with medium-only served as positive and negative controls for cell death, respectively.
# [2] = system: TIGK cells; test: ATP assay (BAR NPs); format: cell-based; settings: 1 ng staurosporine, vs untreated and NP-treated cells
# Method: Total ATP levels in cell culture were assessed by using the CellTiter-Glo reagent (Promega, Madison WI), as described by the manufacturer. TIGK cells were seeded at a density of 6×10^4 cells in 1 mL media per well and incubated at 37° C., 5% CO2 for 24 hr in a 12-well flat bottom plate. Cells were then incubated with CafA-modified BAR-NPs or unmodified BAR-NPs (1.3 or 3.4 μM) for 24 hr at 37° C. in 5% CO2. Cells were then lysed with 500 μL of 0.1% Triton X-100 for 30 min at 37° C. The lysates were collected and centrifuged at 1,000×g for 10 min at 4° C., and 50 μL of supernatant was mixed with 50 μL of CellTiter-Glo reagent. Samples were incubated at ambient temperature for 10 min in a black 96-well plate in the dark. Total luminescence was measured with a Victor 3 luminometer (Perkin-Elmer, Inc). Cells incubated with 1 ng of staurosporine or with medium-only served as positive and negative controls for cell death, respectively.
# [3] = system: TIGK cells; test: LDH assay (BAR, BAR-EFs); format: cell-based
# Method: (§1) Telomerase immortalized gingival keratinocytes (TIGKs) were grown on 12-well collagen-coated plates (Becton Dickinson, Bedford, MA) and cultured using DermaLife K Calcium Free Medium (LifeFactors®) supplemented with penicillin/streptomycin (100 U/mL final concentration; St. Louis, MO), insulin (5 μg/mL), recombinant human (rh), L-glutamine (6 mM), apo-transferrin (5 μg/mL), epinephrine (1 μM), rh TGF-α (0.5 ng/mL), extract P™, calcium chloride (0.06 mM) and hydrocortisone hemisuccinate (100 ng/mL). The cells were incubated at 37° C. in the presence of 5% CO2 for 6 days until they reached 95% confluence.
# LDH Assay: Cell membrane leakage was measured by assessing the release of lactate dehydrogenase (LDH). Extracellular LDH was quantified using a CytoTox96® non-radioactive cytotoxicity assay (Promega, Madison WI) as described by the manufacturer. TIGK cells were plated at density of 6×10^4 cells in 1 mL media per well in a 12-well flat bottom plate, and incubated at 37° C., 5% CO2 for 24 hr. BAR or 10:90 PLGA-PEO BAR-EFs (1.3 or 3.4 μM) were added to cells in triplicate for 24 hr at 37° C. in 5% CO2. Fifty microliters of supernatant from free BAR and BAR-EF-treated (1.3 and 3.4 μM) cells were added to the LDH substrate and incubated at room temperature for 30 min. […] LDH activity was determined by measuring the optical density of the solution at 490 nm. […]
# [4] = system: TIGK cells; test: ATP assay (BAR, BAR-EFs); format: cell-based
# Method: as §1
# ATP Assay: The metabolic activity of TIGK cells was assessed by measuring total ATP levels using the CellTiter-Glo reagent (Promega, Madison WI), as described by the manufacturer. TIGK cells were seeded at a density of 6×10^4 cells in 1 mL media per well and incubated at 37° C., 5% CO2 for 24 hr in a 12-well flat bottom plate. Cells were then incubated with BAR or 10:90 PLGA-PEO BAR-EFs (1.3 or 3.4 μM) for 24 hr at 37° C. in 5% CO2. Cells were then lysed with 500 μL of 0.1% Triton X-100 for 30 min at 37° C. The lysates were collected and centrifuged at 1,000×g for 10 min at 4° C., and 50 μL of supernatant was mixed with 50 μL of CellTiter-Glo reagent. […] Total luminescence was measured with a Victor 3 luminometer (Perkin-Elmer, Inc). […]
# [5] = system: P. gingivalis adherence to S. gordonii; settings: cited from earlier work
# [6] = system: pre-established P. gingivalis-S. gordonii biofilms; test: Biofilm disruption assay; format: cell-based, P. gingivalis (ATCC 33277) / S. gordonii DL-1; settings: 3.0 μM, 3 hr on 24 hr biofilms
# Method: The resulting P. gingivalis S. gordonii biofilms were then treated for the maximum duration observed for free BAR to disrupt existing biofilms (3 hr). Established biofilms were administered BAR-EFs, free BAR or blank EFs at various concentrations in 1 mL PBS, and processed and analyzed as described above. The mean and standard deviation (SD) between samples were determined and the percent disruption of P. gingivalis adherence was calculated with the following formula: GR sample/GR control.
# [7] = system: sheep erythrocytes; settings: 1.3, 3.4 μM, 3 hr, relative to H2O-treated cells
# Method: Hemolytic Assay: A sample of 250 μL of 1% sheep erythrocytes (Rockland Inc, Pennsylvania, USA) was suspended in sterile PBS. […] Water replaced PBS as a positive control for cell hemolysis. The suspension was incubated at 37° C. for 3 hr then centrifuged at 3,500×g. Hemoglobin released due to cell lysis was analyzed by measuring the absorbance at 541 nm.
# [8] = system: P. gingivalis adherence to S. gordonii; settings: 3.0 μM
# Method: P. gingivalis (ATCC 33277) was grown in Trypticase soy broth (Difco Laboratories Inc., Livonia, MI, USA) supplemented with 0.5% (w/v) yeast extract, 1 μg/mL menadione, and 5 μg/mL hemin. The medium was reduced for 24 hr under anaerobic conditions (10% CO2, 10% H2, and 80% N2) and P. gingivalis was subsequently inoculated and grown anaerobically for 48 hr at 37° C. S. gordonii DL-1 was cultured aerobically without shaking in brain-heart infusion broth (Difco Laboratories Inc.) supplemented with 1% yeast extract for 16 hr at 37° C.
# To assess the effectiveness of BAR-incorporated EFs to prevent the interaction of P. gingivalis with S. gordonii, S. gordonii was harvested from culture and labeled with 20 μL of 5 mg/mL hexidium iodide for 15 min at room temperature. Following incubation, cells were centrifuged to remove unbound fluorescent dye. The bacterial concentration was subsequently measured by the OD (600 nm) from twenty-fold diluted cultures of S. gordonii. […]
# Plates containing P. gingivalis and S. gordonii were subsequently incubated for 24 hr at 37° C. in anaerobic conditions. […] Images were analyzed with Volocity image analysis software (version 6.3; Perkin Elmer, Waltham, MA, USA) to determine the ratio of green to red fluorescence (GR), representing P. gingivalis and S. gordonii, respectively. Control samples were used to subtract background levels of auto-fluorescence. […]
# [9] = system: TIGK cells; test: MTT assay (BAR, BAR-EFs); format: cell-based; settings: 1.3 or 3.4 μM, 24 hr, relative to medium-only treated cells
# Method: as §1
# MTT Assay: TIGK cells were seeded in 12-well plates at a density of 6×10^4 cells in 1 mL media per well and incubated for 24 hr to allow for 60-70% confluency and sufficient adhesion. Cells were treated with 1.3 or 3.4 μM of BAR or 10:90 PLGA-PEO BAR-EFs. After 24 hr, 100 μL of MTT solution was added to the media of all samples. After 4 hr incubation at 37° C., 550 μL of lysis buffer was added to the media of each well and plates were incubated for overnight. The absorbance of each well was read at 570 nm, and the sample absorbance was normalized to the absorbance of medium-only treated cells. Cells were treated with 10% DMSO media (100 μL DMSO in 900 μL media) as a positive control for cell death.
# [10] = system: TIGK cells; test: Oxidative DNA damage (AP sites); format: cell-based; settings: 1.3 or 3.4 μM, 24 hr
# Method: as §1
# Oxidative DNA Damage: Free radicals and other reactive species are generated from cells under stress and cause oxidative damage to biomolecules. DNA is the most targeted site of oxidative attack. […] OxiSelect™ Oxidative DNA Damage Quantitation Kit (Cell Biolabs, INC., San Diego, CA, USA) was used to quantify AP sites in cells treated with free BAR or 10:90 PLGA-PEO BAR-EFs (1.3 or 3.4 μM) as described by the manufacturer. […] AP sites were determined in genomic DNA by using a biotinylated aldehyde reactive probe (ARP) that reacts specifically with an aldehyde group of AP sites, followed by colorimetric detection using a streptavidin-enzyme conjugate (450 nm). The quantity of AP sites in DNA samples was determined by comparing the absorbance with standard curve of known amount of AP sites.
# [11] = molecular target: T1, minor fimbriae (Mfal) of P. gingivalis; test: cell-based or functional assay
molecule,measurement,setting,value
"CN[C@@H]1C[C@H]2O[C@@](C)([C@@H]1OC)n1c3ccccc3c3c4c(c5c6ccccc6n2c5c31)C(=O)NC4 [Staurosporine, staurosporine, reference compound]",LDH activity released (positive control),[1],significantly higher
same,ATP levels (positive control),[2],significantly lower levels of ATP
same,LDH released (positive control),"[3]; staurosporine, relative to medium-only, free BAR and BAR-EFs",significantly higher level of LDH
same,ATP levels (positive control),"[4]; 1 ng staurosporine, vs medium-only, free BAR and BAR-EF treated cells",significantly lower levels of ATP
"H-LEAAPKKVQDLLKKANITVKGAFQLFS-OH [free BAR, NH2-LEA APK KVQ DLL KKA NIT VKG AFQ LFS-COOH]",IC50,"[5]; previously determined, read-out: previously determined IC50 of free BAR",1300 nM
same,maximum effective concentration,[5]; used in in vitro and in vivo studies,3.4 µM
same,Biofilm formation disrupted,[6],66%
same,Hemolytic activity,[7],negligible hemolysis
same,LDH released relative to medium-only treated cells,"[3]; 1.3 or 3.4 μM, 24 hr",no change in levels of LDH
same,ATP levels relative to medium-only treated cells,"[4]; 1.3 or 3.4 μM, 24 hr",no decrease in ATP
same,Biofilm formation inhibited,[8],81%
same,TIGK cell viability (MTT),[9],no loss in viability
same,Number of AP sites relative to medium-only treated cells,[10],no change in the number of AP sites
B1,"IC50 of biofilm disruption, BAR-incorporated 10:90 PLGA:PEO EFs",[11],2000 nM
same,"IC50 of inhibition of biofilm formation, BAR-incorporated 10:90 PLGA:PEO EFs",[11],1300 nM
